Assay results: patent publication US20160297833A1, “THIENOPYRIMIDINES AS MKNK1 AND MKNK2 INHIBITORS” (BAYER PHARMA AKTIENGESELLSCHAFT, priority 2013, published 2016)

Molecular target: T1, human full-length MKNK1 (Homo sapiens, UniProt Q9BUB5, T385D)
T1 construct: GST (N); purchased Carna Biosciences 02-145; host or cells: insect cells (baculovirus expression system)
Assay: MKNK1 kinase high ATP assay (TR-FRET)
Format: biochemical
Settings: Table 1; MKNK1 kinase high ATP assay, 2 mM ATP; read-out: MKNK1 IC50
Method in brief: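 Full-length human MKNK1 (T385D) preincubated 15 min at 22 °C with compound in HEPES pH 7.5/MgCl2/DTT buffer; reaction with 2 mM ATP (final) and 0.06 μM biotinylated peptide (final), 30 min at 22 °C.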

T1 sequence (Q9BUB5 1-424 isoform Q9BUB5-2 T344D): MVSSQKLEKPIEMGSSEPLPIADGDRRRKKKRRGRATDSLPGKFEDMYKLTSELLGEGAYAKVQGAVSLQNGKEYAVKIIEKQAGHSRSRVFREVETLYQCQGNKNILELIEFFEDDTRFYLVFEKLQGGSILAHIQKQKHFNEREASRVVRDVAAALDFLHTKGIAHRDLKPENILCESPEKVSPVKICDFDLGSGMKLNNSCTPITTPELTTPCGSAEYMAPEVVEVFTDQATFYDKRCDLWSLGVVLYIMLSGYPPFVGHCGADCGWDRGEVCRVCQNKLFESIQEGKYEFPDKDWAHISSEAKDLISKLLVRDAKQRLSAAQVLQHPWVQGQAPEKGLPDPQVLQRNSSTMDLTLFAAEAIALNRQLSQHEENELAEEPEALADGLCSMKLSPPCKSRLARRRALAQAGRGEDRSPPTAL

| IC50 | Structure (SMILES) |
| --- | --- |
| 1 nM | C=CCN(C)c1cc2[nH]ncc2cc1Nc1ncnc2sc3c(c12)CC[C@H](C(=O)N(C)C)C3 [Example 128, (7S)—N,N-Dimethyl-4-({6-[methyl(prop-2-en-1-yl)amino]-1H-indazol-5-yl}amino)-5,6,7,8-tetrahydro[1]benzothieno[2,3-d]pyrimidine-7-carboxamide] |
| 8.9 nM | CC(C)Oc1cc2[nH]ncc2c(F)c1Nc1ncnc2sc3c(c12)CC[C@H](C(=O)N(C)C)C3 [Example 129, (7S)-4-{[4-Fluoro-6-(propan-2-yloxy)-1H-indazol-5-yl]amino}-N,N-dimethyl-5,6,7,8-tetrahydro[1]benzothieno[2,3-d]pyrimidine-7-carboxamide] |
| 0.9 nM | C[C@@H]1COCCN1C(=O)[C@H]1CCc2c(sc3ncnc(Nc4cc5cn[nH]c5cc4OCCN)c23)C1 [Example 130, [(7S)-4-{[6-(2-Aminoethoxy)-1H-indazol-5-yl]amino}-5,6,7,8-tetrahydro[1]benzothieno[2,3-d]pyrimidin-7-yl][(3R)-3-methylmorpholin-4-yl]methanone] |
| 0.4 nM | C[C@H]1COCCN1C(=O)[C@H]1CCc2c(sc3ncnc(Nc4cc5cn[nH]c5cc4OCCN)c23)C1 [Example 131, [(7S)-4-{[6-(2-Aminoethoxy)-1H-indazol-5-yl]amino}-5,6,7,8-tetrahydro[1]benzothieno[2,3-d]pyrimidin-7-yl][(3S)-3-methylmorpholin-4-yl]methanone] |
| 27.2 nM | CN(C)C1CCN(c2cc3[nH]ncc3cc2Nc2ncnc3sc4c(c23)CC[C@H](C(=O)N2CCC2)C4)CC1 [Example 132, Azetidin-1-yl[(7S)-4-({6-[4-(dimethylamino)piperidin-1-yl]-1H-indazol-5-yl}amino)-5,6,7,8-tetrahydro[1]benzothieno[2,3-d]pyrimidin-7-yl]methanone] |
| 37.9 nM | CN(C)C1CCN(c2cc3[nH]ncc3cc2Nc2ncnc3sc4c(c23)CC[C@H](C(=O)N2CCOCC2)C4)CC1 [Example 133, [(7S)-4-({6-[4-(Dimethylamino)piperidin-1-yl]-1H-indazol-5-yl}amino)-5,6,7,8-tetrahydro[1]benzothieno[2,3-d]pyrimidin-7-yl](morpholin-4-yl)methanone] |
| 8.3 nM | CN(C)CCOc1cc2[nH]ncc2cc1Nc1ncnc2sc3c(c12)CC[C@H](C(=O)N1CCC(N(C)C)CC1)C3 [Example 134, [(7S)-4-({6-[2-(Dimethylamino)ethoxy]-1H-indazol-5-yl}amino)-5,6,7,8-tetrahydro[1]benzothieno[2,3-d]pyrimidin-7-yl][4-(dimethylamino)piperidin-1-yl]methanone] |
| 14.1 nM | C[C@H]1COCCN1C(=O)[C@H]1CCc2c(sc3ncnc(Nc4cc5cn[nH]c5cc4N4CCC(N(C)C)CC4)c23)C1 [Example 135, [(7S)-4-({6-[4-(Dimethylamino)piperidin-1-yl]-1H-indazol-5-yl}amino)-5,6,7,8-tetrahydro[1]benzothieno[2,3-d]pyrimidin-7-yl][(3S)-3-methylmorpholin-4-yl]methanone] |
| 24 nM | C[C@@H]1COCCN1C(=O)[C@H]1CCc2c(sc3ncnc(Nc4cc5cn[nH]c5cc4N4CCC(N(C)C)CC4)c23)C1 [Example 136, [(7S)-4-({6-[4-(Dimethylamino)piperidin-1-yl]-1H-indazol-5-yl}amino)-5,6,7,8-tetrahydro[1]benzothieno[2,3-d]pyrimidin-7-yl][(3R)-3-methylmorpholin-4-yl]methanone] |
| 33 nM | C[C@@H]1CN(C(=O)[C@H]2CCc3c(sc4ncnc(Nc5cc6cn[nH]c6cc5N5CCC(N(C)C)CC5)c34)C2)C[C@H](C)O1 [Example 137, [(7S)-4-({6-[4-(Dimethylamino)piperidin-1-yl]-1H-indazol-5-yl}amino)-5,6,7,8-tetrahydro[1]benzothieno[2,3-d]pyrimidin-7-yl][(2R,6S)-2,6-dimethylmorpholin-4-yl]methanone] |
| 192 nM | CN(C)C1CCN(C(=O)[C@H]2CCc3c(sc4ncnc(Nc5cc6cn[nH]c6cc5OCCN5CCCC5)c34)C2)CC1 [Example 138, [4-(Dimethylamino)piperidin-1-yl][(7S)-4-({6-[2-(pyrrolidin-1-yl)ethoxy]-1H-indazol-5-yl}amino)-5,6,7,8-tetrahydro[1]benzothieno[2,3-d]pyrimidin-7-yl]methanone] |
| 95 nM | CN(C)C1CCN(C(=O)[C@H]2CCc3c(sc4ncnc(Nc5cc6cn[nH]c6cc5OCCN5CCCCC5)c34)C2)CC1 [Example 139, [4-(Dimethylamino)piperidin-1-yl][(7S)-4-({6-[2-(piperidin-1-yl)ethoxy]-1H-indazol-5-yl}amino)-5,6,7,8-tetrahydro[1]benzothieno[2,3-d]pyrimidin-7-yl]methanone] |
| 0.4 nM | C[C@H](CN)Oc1cc2[nH]ncc2cc1Nc1ncnc2sc3c(c12)CC[C@H](C(=O)N1CCOC[C@@H]1C)C3 [Example 140, {(7S)-4-[(6-{[(2R)-1-Aminopropan-2-yl]oxy}-1H-indazol-5-yl)amino]-5,6,7,8-tetrahydro[1]benzothieno[2,3-d]pyrimidin-7-yl}[(3S)-3-methylmorpholin-4-yl]methanone] |
| 3.4 nM | C[C@@H](CN)Oc1cc2[nH]ncc2cc1Nc1ncnc2sc3c(c12)CC[C@H](C(=O)N(C)C)C3 [Example 141, (7S)-4-[(6-{[(25)-1-Aminopropan-2-yl]oxy}-1H-indazol-5-yl)amino]-N,N-dimethyl-5,6,7,8-tetrahydro[1]benzothieno[2,3-d]pyrimidine-7-carboxamide] |
| 3.5 nM | C[C@H](N)COc1cc2[nH]ncc2cc1Nc1ncnc2sc3c(c12)CC[C@H](C(=O)N(C)C)C3 [Example 142, (7S)-4-[(6-{[(2S)-2-Aminopropyl]oxy}-1H-indazol-5-yl)amino]-N,N-dimethyl-5,6,7,8-tetrahydro[1]benzothieno[2,3-d]pyrimidine-7-carboxamide] |
| 3 nM | C[C@H](N)COc1cc2[nH]ncc2cc1Nc1ncnc2sc3c(c12)CC[C@H](C(=O)N1CCOC[C@@H]1C)C3 [Example 143, {(7S)-4-[(6-{[(2S)-2-Aminopropyl]oxy}-1H-indazol-5-yl)amino]-5,6,7,8-tetrahydro[1]benzothieno[2,3-d]pyrimidin-7-yl}[(3S)-3-methylmorpholin-4-yl]methanone] |
| 1 nM | C[C@H](CN)Oc1cc2[nH]ncc2cc1Nc1ncnc2sc3c(c12)CC[C@H](C(=O)N1CCOC[C@H]1C)C3 [Example 144, {(7S)-4-[(6-{[(2R)-1-Aminopropan-2-yl]oxy}-1H-indazol-5-yl)amino]-5,6,7,8-tetrahydro[1]benzothieno[2,3-d]pyrimidin-7-yl}[(3R)-3-methylmorpholin-4-yl]methanone] |
| 5.1 nM | C[C@@H](CN)Oc1cc2[nH]ncc2cc1Nc1ncnc2sc3c(c12)CC[C@H](C(=O)N1CCOC[C@@H]1C)C3 [Example 145, {(7S)-4-[(6-{[(2S)-1-Aminopropan-2-yl]oxy}-1H-indazol-5-yl)amino]-5,6,7,8-tetrahydro[1]benzothieno[2,3-d]pyrimidin-7-yl}[(3S)-3-methylmorpholin-4-yl]methanone] |
| 13.1 nM | C[C@H](N)COc1cc2[nH]ncc2cc1Nc1ncnc2sc3c(c12)CC[C@H](C(=O)N1CCOC[C@H]1C)C3 [Example 146, {(7S)-4-[(6-{[(2S)-2-Aminopropyl]oxy}-1H-indazol-5-yl)amino]-5,6,7,8-tetrahydro[1]benzothieno[2,3-d]pyrimidin-7-yl}[(3R)-3-methylmorpholin-4-yl]methanone] |
| 5.6 nM | C[C@@H](N)COc1cc2[nH]ncc2cc1Nc1ncnc2sc3c(c12)CC[C@H](C(=O)N(C)C)C3 [Example 147, (7S)-4-[(6-{[(2R)-2-Aminopropyl]oxy}-1H-indazol-5-yl)amino]-N,N-dimethyl-5,6,7,8-tetrahydro[1]benzothieno[2,3-d]pyrimidine-7-carboxamide] |
| 4.2 nM | C[C@@H]1COCCN1C(=O)[C@H]1CCc2c(sc3ncnc(Nc4cc5cn[nH]c5cc4O[C@@H](C)CN)c23)C1 [Example 148, {(7S)-4-[(6-{[(2S)-1-Aminopropan-2-yl]oxy}-1H-indazol-5-yl)amino]-5,6,7,8-tetrahydro[1]benzothieno[2,3-d]pyrimidin-7-yl}[(3R)-3-methylmorpholin-4-yl]methanone] |
| 5.2 nM | C[C@@H](N)COc1cc2[nH]ncc2cc1Nc1ncnc2sc3c(c12)CC[C@H](C(=O)N1CCOC[C@@H]1C)C3 [Example 149, {(7S)-4-[(6-{[(2R)-2-Aminopropyl]oxy}-1H-indazol-5-yl)amino]-5,6,7,8-tetrahydro[1]benzothieno[2,3-d]pyrimidin-7-yl}[(3S)-3-methylmorpholin-4-yl]methanone] |
| 7.3 nM | C[C@@H]1COCCN1C(=O)[C@H]1CCc2c(sc3ncnc(Nc4cc5cn[nH]c5cc4OC[C@@H](C)N)c23)C1 [Example 150, {(7S)-4-[(6-{[(2R)-2-Aminopropyl]oxy}-1H-indazol-5-yl)amino]-5,6,7,8-tetrahydro[1]benzothieno[2,3-d]pyrimidin-7-yl}[(3R)-3-methylmorpholin-4-yl]methanone] |
| 39.6 nM | CN(C)CCN(C)c1cc2[nH]ncc2cc1Nc1ncnc2sc3c(c12)CC[C@H](C(=O)N(C)C)C3 [Example 151, (7S)-4-[(6-{[2-(Dimethylamino)ethyl](methyl)amino}-1H-indazol-5-yl)amino]-N,N-dimethyl-5,6,7,8-tetrahydro[1]benzothieno[2,3-d]pyrimidine-7-carboxamide] |
| 0.6 nM | C[C@H](CN)Oc1cc2[nH]ncc2cc1Nc1ncnc2sc3c(c12)CC[C@H](C(=O)N(C)C)C3 [Example 152, (7S)-4-[(6-{[(2R)-1-Aminopropan-2-yl]oxy}-1H-indazol-5-yl)amino]-N,N-dimethyl-5,6,7,8-tetrahydro[1]benzothieno[2,3-d]pyrimidine-7-carboxamide] |
